Test results as given in the supplement of paper PMC10307832.

What was measured:
Assay in all cases: relative viability (nuclei count vs DMSO), 5 days (fraction); higher = more cells survive
JZL-184 + Linsitinib = compound: C1CN(CCC1C(C2=CC3=C(C=C2)OCO3)(C4=CC5=C(C=C4)OCO5)O)C(=O)OC6=CC=C(C=C6)[N+](=O)[O-] [JZL-184] + C[C@]1(O)C[C@@H](c2nc(-c3ccc4ccc(-c5ccccc5)nc4c3)c3c(N)nccn32)C1 [Linsitinib] (partner 1 µM)
Summary of the method: (§1)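 Relative viability equals treated-well nuclei counts divided by vehicle-well nuclei counts. Counts came from 4× images of lung cancer cell lines grown in 1536-well plates for 5 days after pin-tool dosing on the day after seeding. Dosing used one drug alone or a fixed anchor-drug dose plus five library-drug doses (not always all listed) in √10 steps, and values are medians of duplicate plates.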

JZL-184 + Tozasertib = compound: C1CN(CCC1C(C2=CC3=C(C=C2)OCO3)(C4=CC5=C(C=C4)OCO5)O)C(=O)OC6=CC=C(C=C6)[N+](=O)[O-] [JZL-184] + Cc1cc(Nc2cc(N3CCN(C)CC3)nc(Sc3ccc(NC(=O)C4CC4)cc3)n2)n[nH]1 [Tozasertib] (partner 0.1 µM)
Summary of the method: as §1

JZL-184 + Vorinostat = compound: C1CN(CCC1C(C2=CC3=C(C=C2)OCO3)(C4=CC5=C(C=C4)OCO5)O)C(=O)OC6=CC=C(C=C6)[N+](=O)[O-] [JZL-184] + O=C(CCCCCCC(=O)Nc1ccccc1)NO [Vorinostat] (partner 1 µM)
Summary of the method: as §1

JZL-184 + Olaparib = compound: C1CN(CCC1C(C2=CC3=C(C=C2)OCO3)(C4=CC5=C(C=C4)OCO5)O)C(=O)OC6=CC=C(C=C6)[N+](=O)[O-] [JZL-184] + O=C(c1cc(Cc2n[nH]c(=O)c3ccccc23)ccc1F)N1CCN(C(=O)C2CC2)CC1 [Olaparib] (partner 8 µM)
Summary of the method: as §1

JZL-184 + Dasatinib = compound: C1CN(CCC1C(C2=CC3=C(C=C2)OCO3)(C4=CC5=C(C=C4)OCO5)O)C(=O)OC6=CC=C(C=C6)[N+](=O)[O-] [JZL-184] + Cc1nc(Nc2ncc(C(=O)Nc3c(C)cccc3Cl)s2)cc(N2CCN(CCO)CC2)n1 [Dasatinib] (partner 0.075 µM)
Summary of the method: as §1

| Cell Line | relative viability (JZL-184 + Linsitinib; first compound 0.04 µM) | relative viability (JZL-184 + Linsitinib; first compound 0.4 µM) | relative viability (JZL-184 + Linsitinib; first compound 1.265 µM) | relative viability (JZL-184 + Linsitinib; first compound 4 µM) | relative viability (JZL-184 + Tozasertib; first compound 0.04 µM) | relative viability (JZL-184 + Tozasertib; first compound 0.4 µM) | relative viability (JZL-184 + Tozasertib; first compound 1.265 µM) | relative viability (JZL-184 + Tozasertib; first compound 4 µM) | relative viability (JZL-184 + Vorinostat; first compound 0.04 µM) | relative viability (JZL-184 + Vorinostat; first compound 0.4 µM) | relative viability (JZL-184 + Vorinostat; first compound 1.265 µM) | relative viability (JZL-184 + Vorinostat; first compound 4 µM) | relative viability (JZL-184 + Olaparib; first compound 0.04 µM) | relative viability (JZL-184 + Olaparib; first compound 0.4 µM) | relative viability (JZL-184 + Olaparib; first compound 1.265 µM) | relative viability (JZL-184 + Olaparib; first compound 4 µM) | relative viability (JZL-184 + Dasatinib; first compound 0.04 µM) | relative viability (JZL-184 + Dasatinib; first compound 0.4 µM) | relative viability (JZL-184 + Dasatinib; first compound 1.265 µM) | relative viability (JZL-184 + Dasatinib; first compound 4 µM) |
| --- | --- | --- | --- | --- | --- | --- | --- | --- | --- | --- | --- | --- | --- | --- | --- | --- | --- | --- | --- | --- |
| RERF-LC-KJ | 0.874 | 0.854 | 0.867 | 0.873 | 0.499 | 0.37 | 0.453 | 0.436 | 0.707 | 0.642 | 0.699 | 0.614 | 0.976 | 0.911 | 0.895 | 0.905 | 0.909 | 0.72 | 0.864 | 0.759 |
| SK-LU-1 | 1.29 | 1.02 | 1.11 | 1.11 | 0.372 | 0.328 | 0.329 | 0.338 | 0.795 | 0.744 | 0.894 | 0.717 | 0.593 | 0.408 | 0.463 | 0.642 | 0.183 | 0.196 | 0.194 | 0.207 |
| SK-MES-1 | 1.07 | 1.04 | 1.1 | 1.06 | 1.04 | 0.878 | 0.908 | 0.706 | 1.12 | 1.05 | 1.05 | 0.955 | 0.792 | 0.698 | 0.765 | 0.662 | 0.332 | 0.486 | 0.359 | 0.445 |
| SW 1573 | 0.856 | 0.833 | 0.781 | 0.814 | 0.175 | 0.143 | 0.229 | 0.176 | 0.824 | 0.64 | 0.788 | 0.551 | 0.68 | 0.351 | 0.454 | 0.479 | 0.638 | 0.379 | 0.548 | 0.42 |
| UMC-11 | 1.43 | 0.935 | 1.09 | 0.944 | 0.177 | 0.21 | 0.206 | 0.196 | 0.405 | 0.415 | 0.381 | 0.304 | 0.349 | 0.333 | 0.308 | 0.354 | 0.662 | 0.474 | 0.494 | 0.447 |
